Data reported in paper PMC7838058 (Acta Pharmaceutica Sinica. B, 2020).

Columns and labels:
SD rats = details: 100 mg/kg by gavage every 8 h for 7 days, means ± SEM, n = 8
in vitro = details: human, Caco-2

Structure (SMILES)	Serum Cl (SD rats) [mmol/L]	Papp A→B at 120 min, 2 μmol/L (in vitro) [nm/s]
CC(=O)Nc1ccc(NC(=O)c2ccc([N+](=O)[O-])o2)cc1 [1H, N-(4-Acetamidophenyl)-5-nitrofuran-2-carboxamide]	101.7 ± 1.3	
COCCc1ccc(OCC(O)CNC(C)C)cc1 (centres unmarked) [metoprolol]		131 ± 6.5
